{"source": "patent US20060166969A1", "about": "“AMPA antagonists for the treatment of dizziness, including vertigo and Meniere's disorder” (priority 2005, published 2006)", "key": {"[1]": {"system": "dizziness, including vertigo and Menière's disorder", "assay": "Animal models for dizziness, including vertigo and Menière's disorder", "assay_type": "in vivo", "details": "animal models not specified; no data given", "description": "Animal models for dizziness, vertigo and Menière's disorder include, but are not limited\nElectronystagmography in rats (see Fischer, A. J. et al., “Electronystagmography in the laboratory rat”, Acta Otolaryngol., 88, 412-419,1979).\nGentamycin induced nystagmus in guinea pigs (see Okuda, T. et al., “Inner ear changes with intracochlear gentamicin administration in Guinea pigs”, Laryngoscope, 114, 694-697, 2004).\nUnilateral peripheral vestibular deafferentation in guinea pigs (see Dutia, M. B. et al., “The opioid receptor antagonist, naloxone, enhances ocular motor compensation in guinea pig following peripheral vestibular deafferentation”, Exp. Neurol., 141,141-144,1996), or rats (see Guilding, C. et al., “11-Beta-hydroxysteroid dehydrogenase type 1 activity in medial vestibular nucleus and cerebellum after unilateral vestibular deafferentation in the rat”, Stress, 7(2),127-130, 2004).\nUnilateral labyrinthectomy in rats (see Johnston, A. R. et al., “Differential regulation of GABA(A) and GABA(B) receptors during vestibular compensation”, Neuroreport.;12(3), 597-600, 2001; and Inoue, S. et al., “Glutamate release in the rat medial vestibular nucleus following unilateral labyrinthectomy using in vivo microdialysis”, Brain Res., 991(1-2), 78-83, 2003). […]"}, "AMPA receptors": {"system": "AMPA receptors", "details": "qualitative statement; affinity for AMPA receptors said to have been published; cited from earlier work"}}}
{"smiles": "Cc1nc2n(c1C)N=C(c1ccccc1)c1cc3c(cc1C2)OCO3", "note": "[8,9-dimethyl-5-phenyl-11H-1,3-dioxolo[4,5-h]imidazo[1,2-c][2,3]benzo-diazepine]", "values": [{"measurement": "activity in animal models for dizziness, including vertigo and Menière's disorder", "setting": "[1]", "value": "active"}, {"measurement": "AMPA receptor antagonistic activity", "setting": "AMPA receptors", "value": "AMPA receptor antagonistic activity"}]}
